Data set [1] is described as follows: UV spectra of compounds in solution (filtering parameters). It counts as physicochemical. The method, then:
The evaluation of the sun protection parameters has been carried out using a UV-Vis spectrophotometer. The absorbance of the solutions of the test compounds dissolved in the different solvents (DMSO, MeOH, DMSO–H2O 4:6, DMSO–H2O 6:4, HE) at a concentration of 0.0015 (±0.000005)% was recorded in the range 290–400 nm using a 1 cm quartz cell at 1 nm intervals. It was decided to evaluate the profile of the compounds in the Peg-7 Glyceryl Cocoate (HE) oil, which is the emollient of choice to solubilize the compounds in a formulation suitable for in vivo analysis. Wavelength absorbance is in relationship with transmittance (T (λ)) from Equation (2) A (λ) = […](2) where T (λ) is the fraction of incident irradiance that is transmitted through a sample.
The three parameters were determined, respectively, in DMSO and in methanol in order to perform a comparison (Table S1).
Since DMSO is a solvent with characteristics very close to those of an oil, the analysis was also carried out in solutions that mimic the possible conditions of a formulation. For this reason, the 4:6 and 6:4 proportions of DMSO–H2O were chosen to evaluate the choice of an oil-in-water or water-in-oil emulsion.

The subject of data set [2] is Candida albicans (ATCC 10231). In words: Anti-Candida albicans activity, broth microdilution MIC. In kind it is cell-based. To be noted: for MIC: Candida albicans, ATCC10231, 24 h of incubation; for activity against Candida albicans: after 24 h. The protocol:
The dermatophytes used in this study were Epidermophyton floccosum var. floccosum (Netherlands) CBS 358.93 strain, Trichophyton tonsurans (Netherlands) CBS 483.76 strain, Trichophyton mentagrophytes (Netherlands) CBS 160.66 strain, Microsporum canis (Iran) CBS 131,110 strain, and Microsporum gypseum (Iran) CBS 130,948 strain. All dermatophytes were maintained at 4 °C as agar slants on SDA. Candida albicans (ATCC 10231) was maintained at 4 °C on SDA plate.
The suspension of Candida albicans consists of the dispersion of an aliquot in 5 mL of sterilized water. The compounds and fluconazole, used as a positive control, were solubilized in DMSO (12.80 mg/mL) as stock solutions. Minimum inhibitory concentration (MIC) was performed by the broth microdilution method according to the approved standard M27-A3, 2008 [NCCLS] of the Clinical and Laboratory Standards Institute/National Committee for Clinical Laboratory Standards (CLSI/NCCLS), as described previously.
Candida is a strain of fungi known to transmit infections to different parts of the human body, including the skin [43], which is why the synthesized compounds have also been tested against Candida Albicans (ATCC 10231). For each of them the minimum inhibitory concentration (MIC) was determined by the broth microdilution method using RPMI 1640 + MOPS as culture medium. […] Fluconazole was used as a positive control drug. […] Similarly to the results observed on dermatophytes, therefore, the unsubstituted compounds in position 6 of benzimidazole gave activity on yeasts, except for compound 8a.
For orientation: In broth dilution the organism is exposed to a series of concentrations in liquid medium.

The subject of data set [3] is dermatophytes. Nature of the data set: Antidermatophyte activity, all tested dermatophytes together. It counts as cell-based. To be noted: read-out: percentages of inhibition of growth, all five dermatophytes. The method, then:
The in vitro antifungal activity against the five selected dermatophytes was evaluated, as previously described, using the plaque growth inhibition method. All compounds were evaluated at the final concentration of 100 µg/mL. The percentages of growth inhibition according to Equation (5) were calculated as the average of three different experiments. I = [(C − T)/C] × 100%,(5) where I is the percentage value of growth inhibition, C is the measure of the diameter of the control circular mycelial inoculum (mm) and T is the extended diameter of the treated mycelial inoculum (mm).
All synthesized benzothiazole derivatives were evaluated to evaluate their in vitro antifungal activity against the five pathogenic dermatophytes that cause the most common dermatomycoses: Microsporum gypseum, Microsporum canis, Trichophyton mentagrophytes, Trichophyton tonsurans and Epidermophyton floccosum. All compounds were tested at a concentration of 100 µg/mL in DMSO, to evaluate the ability to inhibit the growth of dermatophyte cultures in Sabouraud Dextrose Agar (SDA). Briefly, room temperature incubation was performed and dermatophyte inhibition assessed by measuring the colony diameter at each disc for 7 days. The results are shown in Table 3 and were determined as the average of three different experiments.

Data set [4] deals with dermatophytes. The arrangement: method as in PMID 32967192. The settings on record: cited from earlier work.

In brackets after ≈: the same amount, converted by molar mass.

For the compound `NS(=O)(=O)c1ccc2nc(-c3cccs3)sc2c1` [Compound 10c, 2-(Thiophen-2-Yl)benzothiazole-6-Sulfonamide], in data set [1] (DMSO), the “A (absorbance)” value was 0.890, the “ε (molar extinction coefficient)” value was 20273.35 and the λmax stood at 336.50 nm. Also, in data set [1] (MeOH), the “A (absorbance)” value is 0.430, the “ε (molar extinction coefficient)” value was determined as 9704.99 and the λmax is on record as 333.17 nm.

On to `c1coc(-c2nc3ccccc3s2)c1` [Compound 9a, 2-(Furan-2-Yl)benzothiazole], for which the “A (absorbance)” value in data set [1] (DMSO) was determined as 1.620; in data set [1] (DMSO-H2O 4:6) it was 2.43; in data set [1] (DMSO-H2O 6:4), 1.95; in data set [1] (HE (Peg-7 Glyceryl Cocoate)) it was 1.18; in data set [1] (MeOH), 2.750. Besides, the “ε (molar extinction coefficient)” value in data set [1] (DMSO) is listed as 21715.82; in data set [1] (DMSO-H2O 4:6), 34863.702; in data set [1] (HE (Peg-7 Glyceryl Cocoate)), 15817.594; in data set [1] (MeOH), 32505.91. In addition, the λmax in data set [1] (DMSO) stood at 322.10 nm; in data set [1] (DMSO-H2O 4:6), 322.77 nm; in data set [1] (DMSO-H2O 6:4) it was 323.00 nm; in data set [1] (HE (Peg-7 Glyceryl Cocoate)), 320.70 nm; in data set [1] (MeOH), 316.40 nm. Moreover, the minimum inhibitory concentration (MIC) in data set [2] was found to be 32 µg/mL (≈ 159 µM). Further, the “activity against Candida albicans” value in data set [2] is recorded as “showed activity against Candida albicans after 24 h”. Besides, the inhibition at 100 µg/mL in the data set with dermatophytes [3] lay within 50 to 75%.

As to `c1c[nH]c(-c2nc3ccccc3s2)c1` [Compound 8a, 2-(1H-Pyrrol-2-Yl)benzothiazole], the “A (absorbance)” value in data set [1] (DMSO) is recorded as 2.360; in data set [1] (DMSO-H2O 4:6) it was 2.35; in data set [1] (DMSO-H2O 6:4) it was 1.51; in data set [1] (HE (Peg-7 Glyceryl Cocoate)), 0.79; in data set [1] (MeOH) it was 1.540. For the same compound, the “ε (molar extinction coefficient)” value in data set [1] (DMSO) amounted to 29500.00; in data set [1] (DMSO-H2O 4:6) it was 31333.333; in data set [1] (DMSO-H2O 6:4) it was 23239.769; in data set [1] (HE (Peg-7 Glyceryl Cocoate)) it was 12153.846; in data set [1] (MeOH), 23692.31. The λmax in data set [1] (DMSO) was found to be 333.40 nm; in data set [1] (DMSO-H2O 4:6), 333.70 nm; in data set [1] (DMSO-H2O 6:4), 334.20 nm; in data set [1] (HE (Peg-7 Glyceryl Cocoate)), 332.80 nm; in data set [1] (MeOH), 329.40 nm.

As to `c1csc(-c2nc3ccccc3s2)c1` [Compound 10a, 2-(Thiophen-2-Yl)benzothiazole], the “A (absorbance)” value in data set [1] (DMSO) turned out to be 0.880; in data set [1] (DMSO-H2O 4:6), 0.75; in data set [1] (DMSO-H2O 6:4) it was 1.29; in data set [1] (HE (Peg-7 Glyceryl Cocoate)), 1.32; in data set [1] (MeOH) it was 0.760. The “ε (molar extinction coefficient)” value is listed as 12735.17 in data set [1] (DMSO); 12520.868 in data set [1] (DMSO-H2O 4:6); 21535.893 in data set [1] (DMSO-H2O 6:4); 14316.703 in data set [1] (HE (Peg-7 Glyceryl Cocoate)); 9706.26 in data set [1] (MeOH). Also, the λmax in data set [1] (DMSO) came to 321.80 nm; in data set [1] (DMSO-H2O 4:6) it was 322.67 nm; in data set [1] (DMSO-H2O 6:4), 323.00 nm; in data set [1] (HE (Peg-7 Glyceryl Cocoate)) it was 320.30 nm; in data set [1] (MeOH), 319.50 nm. In data set [2], this compound returned an MIC of 64 µg/mL (≈ 294 µM). For the same compound, the “activity against Candida albicans” value in data set [2] is reported as “showed activity against Candida albicans after 24 h”. Besides, the inhibition at 100 µg/mL in the data set on dermatophytes [3] was 50 to 75%.

Take `c1c[nH]c(-c2nc3ccccc3[nH]2)c1` [Lead 10, reference compound]: in the data set on dermatophytes [4], the “IC50 towards the tested dermatophytes” value is on record as “lower than 2 µg/mL”.

One may read the MIC as the smallest concentration in the dilution series that meets the test's criterion for growth inhibition. Read a high MIC as a less susceptible organism. A word on the inhibition: it is the change of the read-out against control, counted positive when it falls.

The values are drawn from PMC8869097, “Benzothiazole Derivatives as Multifunctional Antioxidant Agents for Skin Damage: Structure–Activity Relationship of a Scaffold Bearing a Five-Membered Ring System” (Antioxidants, 2022).
